3 molecules from US10835614B2, “Poly(diol fumarates) and poly(diol fumarate-co-succinates)” (William Marsh Rice University, priority 2016, dated 2020) can be followed below.

What all share (test): MIC, CLSI M38-A2 broth microdilution antifungal susceptibility testing
For orientation: In broth dilution the organism is exposed to a series of concentrations in liquid medium.

Assay [1] relates to Rhiozpus oryzae R0969. The format is cell-based, R. oryzae. The conditions noted are these: diols tested from 1024 μg/mL to 0.0625 μg/mL, triplicate; for MIC: Rhizopus arrhizus, R0969, read-out: minimum inhibitory concentration (MIC), R. oryzae. Here is the method: (§1) A. fumigatus Af293, C. albicans Y4215 and Rhiozpus oryzae R0969, all clinical isolates of pathogenic species, were used to determine the antifungal activity of three different terminal diols: 1,6-hexanediol; 1,8-octanediol; and 1,10-decanediol (all purchased from Sigma-Aldrich, St. Louis, Mo.). Briefly, minimum inhibitory concentration (MIC) was determined following the Clinical Laboratory & Standards Institute (CLSI) M38-A2 broth microdilution antifungal susceptibility testing method. […] The experiment was performed in triplicate for each species and each diol.

Assay [2] has as its system A. fumigatus Af293. The format is cell-based. The following applies: diols tested from 1024 μg/mL to 0.0625 μg/mL, triplicate; for MIC: Aspergillus fumigatus, AF293, read-out: minimum inhibitory concentration (MIC), A. fumigatus. The protocol: as §1
Assay [3] concerns C. albicans Y4215. Type of assay: cell-based. The conditions noted are these: diols tested from 1024 μg/mL to 0.0625 μg/mL, triplicate; for MIC: Candida albicans, Y4215, read-out: minimum inhibitory concentration (MIC), C. albicans. The protocol: as §1

Structures are written as SMILES. ≈ marks a conversion by molar mass, not a printed value.

Regarding `OCCCCCCO` [1,6-Hexanediol, 1,6-hexanediol], in assay [1], the MIC was not below 1020 µg/mL and the “minimum inhibitory concentration (MIC), R. oryzae” value was “did not demonstrate activity”. For the same molecule, in assay [2], the MIC was not below 1020 µg/mL and the “minimum inhibitory concentration (MIC), A. fumigatus” value was “did not demonstrate activity”. Besides, in assay [3], the MIC is not below 1020 µg/mL and the “minimum inhibitory concentration (MIC), C. albicans” value is on record as “did not demonstrate activity”.

`OCCCCCCCCO` [1,8-Octanediol, 1,8-octanediol]: in assay [1], the MIC is not below 1020 µg/mL and the “minimum inhibitory concentration (MIC), R. oryzae” value is reported as “did not demonstrate activity”. In assay [2], the MIC is not below 1020 µg/mL and the “minimum inhibitory concentration (MIC), A. fumigatus” value was “did not demonstrate activity”. Besides, in assay [3], the MIC is not below 1020 µg/mL and the “minimum inhibitory concentration (MIC), C. albicans” value is given as “did not demonstrate activity”.

In the case of `OCCCCCCCCCCO` [1,10-Decanediol, 1,10-decanediol], the figures for the MIC in assay [1], in assay [2] and in assay [3] were 1020 µg/mL (≈ 5.88 mM), 256 µg/mL (≈ 1.47 mM) and not below 1020 µg/mL, respectively.
